Biological target: T1, Histone deacetylase 8 (Homo sapiens, UniProt Q9BY41)
T1 sequence (Q9BY41 whole entry): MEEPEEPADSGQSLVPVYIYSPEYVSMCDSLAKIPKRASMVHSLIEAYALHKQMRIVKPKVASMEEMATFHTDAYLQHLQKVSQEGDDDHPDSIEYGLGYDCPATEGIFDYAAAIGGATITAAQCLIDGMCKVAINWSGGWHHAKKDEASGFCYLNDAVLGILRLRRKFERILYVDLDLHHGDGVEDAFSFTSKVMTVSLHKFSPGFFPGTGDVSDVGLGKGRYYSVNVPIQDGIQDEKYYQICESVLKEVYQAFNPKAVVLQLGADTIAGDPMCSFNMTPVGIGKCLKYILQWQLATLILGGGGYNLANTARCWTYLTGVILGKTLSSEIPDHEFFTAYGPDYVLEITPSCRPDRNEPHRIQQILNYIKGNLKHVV
Assay: Inhibition of human recombinant HDAC8 using fluorescent acetylated substrate

IC50 [µM]	Ki [µM]	SMILES
2.71	2.43	[N-]=[N+]=Nc1ccc(-c2csc(NC(=O)CCCCCCC(=O)NO)n2)cc1
7.34	6.59	[N-]=[N+]=NCc1cc(COc2ccc(NC(=O)CCCCCCC(=O)NO)cc2)cc(N=[N+]=[N-])c1
